Measurements: ChEMBL document CHEMBL1201862, “PubChem BioAssay data set” (2004)
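Each compound was tested at five concentrations against cells in 96-well plates for 48 hours. GI50 is the concentration that inhibits growth by half.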 Calls of active or inactive are those of the source. No stated cut-off is given here; in the data, active = GI50 up to about 1.1 µM and inactive = higher.

Experiments:
Assay in all cases: growth of human tumour cells (NCI), 48 h
[1] = tested on: A498
[2] = tested on: A549
[3] = tested on: COLO 205
[4] = tested on: HOP-92
[5] = tested on: KM12
[6] = tested on: MDA-MB-231
[7] = tested on: MOLT-4
[8] = tested on: NCI-H226
[9] = tested on: OVCAR-3
[10] = tested on: OVCAR-4
[11] = tested on: PC-3
[12] = tested on: RPMI-8226
[13] = tested on: SF-268
[14] = tested on: SF-295
[15] = tested on: SK-MEL-5
[16] = tested on: SK-OV-3
[17] = tested on: SW-620
[18] = tested on: SF-539
[19] = tested on: T47D

Measured: GI50

C/C1=C\[C@H](C)C[C@H](C)OC(=O)C[C@H](c2ccc(O)cc2)NC(=O)[C@H](Cc2ccc(O)c(Br)c2)N(C)C(=O)[C@H](C)NC(=O)[C@@H](C)C1
inactive: [1] > 25 µM | [2] > 25 µM | [3] > 25 µM | [4] > 25 µM | [5] > 25 µM | [6] > 25 µM | [7] > 25 µM | [8] > 25 µM | [9] > 25 µM | [10] > 25 µM | [11] > 25 µM | [12] > 25 µM | [13] > 25 µM | [14] > 25 µM | [15] > 25 µM | [16] > 25 µM | [17] > 25 µM

COc1cc(OC)c2c(=O)c3cccc(C)c3n(C)c2c1
inactive: [1] > 100 µM | [2] 83.2 µM | [3] 67 µM | [4] 83.6 µM | [5] 80 µM | [6] > 100 µM | [7] 52.4 µM | [8] > 100 µM | [9] 74.8 µM | [10] 64 µM | [11] 50.9 µM | [12] 17.9 µM | [13] 72.6 µM | [14] 57.7 µM | [18] 68.5 µM | [15] 22.4 µM | [16] > 100 µM | [17] > 100 µM

CCNc1nnc(CSc2nc(-c3ccccc3)c(-c3ccccc3)[nH]2)s1
inactive: [2] 28.7 µM | [3] 19.1 µM | [4] 15.8 µM | [5] 9.38 µM | [7] 20.5 µM | [8] 13.4 µM | [9] 20.6 µM | [10] 30.5 µM | [12] 15.5 µM | [13] 15.7 µM | [14] 17.7 µM | [18] 18.7 µM | [15] 11.8 µM | [16] 20.1 µM | [17] 20.2 µM

O=C1CC(c2c(-c3ccccc3)[nH]c3ccccc23)C(=O)N1 (centres undefined)
inactive: [1] 90.2 µM | [2] > 100 µM | [5] > 100 µM | [7] > 100 µM | [8] > 100 µM | [9] > 100 µM | [10] > 100 µM | [12] > 100 µM | [14] > 100 µM | [18] > 100 µM | [15] > 100 µM | [16] > 100 µM | [17] > 100 µM

Cc1ccc2c(O)cc(-c3sc4ccccc4c3C)nc2n1
inactive: [1] 22.4 µM | [2] 22.7 µM | [3] 23.4 µM | [4] 4.46 µM | [5] 15.7 µM | [6] 49.5 µM | [7] 26.1 µM | [8] 20.4 µM | [10] 19.1 µM | [12] 14.5 µM | [13] 21.6 µM | [14] 17.1 µM | [16] 21.7 µM | [19] 14.5 µM

CCOc1ccccc1NC(=O)CCc1nnc2s/c(=C\CCc3ccccc3)c(=O)n12
inactive: [1] > 100 µM | [2] > 100 µM | [3] > 100 µM | [4] > 100 µM | [5] > 100 µM | [7] > 100 µM | [8] > 100 µM | [9] > 100 µM | [10] > 100 µM | [12] > 100 µM | [13] > 100 µM | [14] > 100 µM | [18] > 100 µM | [15] > 100 µM | [16] > 100 µM | [17] > 100 µM

COc1cc(Oc2nc3cc(F)c(F)cc3nc2-c2ccccc2)cc(OC)c1OC
inactive: [1] > 100 µM | [2] > 100 µM | [3] > 100 µM | [4] > 100 µM | [5] 35 µM | [7] > 100 µM | [8] 45.5 µM | [9] > 100 µM | [10] 79.3 µM | [11] 40.3 µM | [13] 59 µM | [14] 46.3 µM | [18] 26.8 µM | [15] 28.1 µM | [16] > 100 µM | [17] > 100 µM | [19] > 100 µM

CCc1cccc(CC)c1NC(=O)C1=CNC(C)=C(C(=O)Nc2c(CC)cccc2CC)C1c1ccc(O)c(OC)c1 (centres undefined)
inactive: [1] 24.7 µM | [2] 31.6 µM | [3] 56.2 µM | [4] 42.4 µM | [5] 24.6 µM | [7] 22.3 µM | [8] 30.1 µM | [9] 19 µM | [10] 23.9 µM | [12] 16.8 µM | [13] 40.6 µM | [14] 29 µM | [18] 17.6 µM | [15] 32.3 µM | [16] > 100 µM | [17] 30.3 µM

CCCCn1c(O)nc2c(N)ncnc21
inactive: [1] > 100 µM | [2] > 100 µM | [3] > 100 µM | [4] > 100 µM | [6] > 100 µM | [8] > 100 µM | [9] > 100 µM | [10] > 100 µM | [11] > 100 µM | [13] > 100 µM | [14] > 100 µM | [18] > 100 µM | [15] > 100 µM | [16] > 100 µM | [17] > 100 µM

COc1cc2ccc3c4cc(OC)c(OCc5ccccc5)cc4cnc3c2cc1OC
inactive: [1] > 100 µM | [2] > 100 µM | [3] > 100 µM | [5] > 100 µM | [7] 70.6 µM | [9] > 100 µM | [10] > 100 µM | [12] 61.9 µM | [13] > 100 µM | [14] > 100 µM | [15] > 100 µM | [16] > 100 µM | [17] > 100 µM

COC(=O)/C=C(\C)CC(O)/C=C(\C)CCC=C(C)C (centres undefined)
inactive: [1] 34.7 µM | [2] 34.3 µM | [3] 41.2 µM | [4] 71.6 µM | [5] 40.4 µM | [6] > 100 µM | [7] 18.7 µM | [8] 45 µM | [9] 22.7 µM | [10] 44 µM | [11] 29.8 µM | [14] 38.1 µM | [18] > 100 µM | [15] 19.5 µM | [16] > 100 µM | [17] 60.8 µM

CC(=O)Nc1ccc(S(=O)(=O)Nc2nc(-c3ccc(Cl)cc3)cc(N3N=C(c4ccc(Br)cc4)CC3c3ccccc3)n2)cc1 (centres undefined)
inactive: [2] 17.7 µM | [3] 14.1 µM | [4] 13.7 µM | [5] 10.7 µM | [6] 13.9 µM | [7] 17 µM | [8] 12.9 µM | [9] 2.06 µM | [10] 15 µM | [11] 14 µM | [12] 12.1 µM | [14] 16.6 µM | [18] 16.9 µM | [16] 15.8 µM | [17] 20.4 µM

CC(=O)OC[C@]1(C)CCCC2(C)C1CCC1C=C(C)[C@H]3CCC12C3 (some centres undefined)
inactive: [2] 65.2 µM | [3] 38.5 µM | [5] 52.6 µM | [7] > 100 µM | [8] > 100 µM | [9] 61.4 µM | [10] > 100 µM | [12] 62.7 µM | [13] 37.8 µM | [14] 35 µM | [18] 25.5 µM | [15] > 100 µM | [16] 44.1 µM | [17] 31.6 µM
